# Reference: patent publication US5420135A, “Substituted quinoline derivatives” (Smith Kline & French Laboratories Limited, priority 1989, dated 1995)
# Test system: isolated rat osteoclasts
# Test: Bone resorption by isolated rat osteoclasts on cortical bone slices
# Assay type: cell-based
# Details: Osteoclast, 18 hours, Mean ± SEM, n = 12, control 100 ± 27
# Procedure: Bone resorption was measured by the actions of isolated rat osteoclasts on cortical bone slices (Zaidi et al. Quarterly Journal of Experimental Physiology 1988 73:471-485). Newborn Wistar rats were killed by decapitation and their femora and tibiae removed. Osteoclasts were mechanically disaggregated by curetting the bones into medium followed by agitation with a pipette. Osteoclasts were separated from other cells by sedimentation onto bone slices (15 minutes, 37°) after which the slices were removed and gently washed. The bone slices were then incubated in the presence of test compounds (37°, 10% humidified CO2, 18 hours) and fixed with glutaraldehyde. The degree of bone resorption was then assessed by the area of erosions produced by the osteoclasts using scanning electron microscopy. Data were meaned from measurements of 6 bone slices in each of two independent experiments.
# Test compounds were dissolved in ethanol which was also added to control incubations (1%) in the absence of compound.
structure (smiles),measurement,setting,value
"Cc1ccccc1-n1nnc2cnc3ccccc3c21 [Example 2, 1-(2-Methylphenyl)triazolo[4,5-c]quinoline]",activity at 10 µM,Conc. 10 μM,49 ± 20%
same,activity at 100 µM,Conc. 100 μM,0%
